Assay results reported in patent US20230277569A1, “Compositions and Methods for Treating, Ameliorating and/or Preventing Cancer and Kits for the Same” (priority 2022, published 2023).
Where “and” joins values, the source holds several entries; their conditions need not be identical. Identical values can stand only once. Entries after “also recorded” stand apart in the source; their conditions may differ. Like-named read-outs stand apart in the source and are kept apart here.

Tests used:
[1] = Toxicity and toxicokinetics in rats, IV twice weekly for 29 d; format: in vivo, Sprague-Dawley rats; details: Sprague-Dawley, rat; for Cmax / AUC(0-t): plasma, iv, rats; for AUC(0-t): read-out: AUC0-24
Method: (§1) Ninety-six male and female Sprague-Dawley rats (6-7 weeks old) were received from Charles River Laboratories, (Raleigh, N.C.) and catheterized via a femoral vein prior to arrival. Animals were acclimated in individual stainless-steel cages with access to water and Certified Rodent Diet #2014C (Envigo RMS) ad libitum for 6 d prior to study initiation. Environmental controls were set to maintain a temperature range of 20 to 26° C., a relative humidity range of 30 to 70%, eight or greater air changes/h, and a 12-h light/dark cycle. Animals were infused with sterile isotonic (0.9%) saline for a minimum of 4 d (0.20 mL/h for males or 0.15 mL/h for females) during the predose phase. At initiation of dosing, animals were 8 to 9 weeks old, and body weights ranged from 283 to 341 g for males and 188 to 238 g for females. Gamitrinib formulated as indicated above was administered by IV infusion on d […], 8, 11, 15, 18, 22, 25, and 29 of the dosing phase at 1, 10, 25 mg/kg/dose and dose volume of 5 mL/kg. The vehicle control administered with the same schedule contained 2.5% DMSO, 0.125% polysorbate 80, 0.031% lecithin, 1.25% sucrose and 4.375% dextrose. Animals were checked twice daily throughout the duration of the study for mortality, abnormalities, and signs of pain or distress. Detailed observations were conducted for each animal up to two times during the predose phase and for each toxicity animal prior to dosing on d 1, 8, 15, 22, and 29 of the dosing phase and on d 1, 7, and 14 of the recovery phase. Blood samples were collected on d. 1, 4 and 29 of the dosing phase 5 min, 1 h and 24 h post-dose, maintained on chilled cryoracks and centrifuged within 1 h of collection. Tissue samples harvested from each animal were embedded in paraffin, sectioned, and slides were prepared and stained with hematoxylin and eosin.

[2] = test system: Sprague-Dawley rats; test: as above; format: in vivo; details: for reduction in mean body weights: male rats
Method: as §1

[3] = test system: breast adenocarcinoma cell lines; details: breast adenocarcinoma lines of NCI 60 screen; read-out: IC50 anticancer activity; cited from earlier work
[4] = Gamitrinib pharmacokinetics (PK) in rat plasma, single IV dose; format: in vivo, Sprague-Dawley rats; details: for 17-AG plasma concentration after IV Gamitrinib: Gamitrinib 5 mg/kg IV
Method: Sprague-Dawley rats (n=3) were administered a single intravenous (IV) dose of 1 mL Gamitrinib (5 mg/kg) formulated as described above without added microfluidization. Blood samples were collected via lateral tail vein using K2EDTA as an anticoagulant at 0.083, 0.25, 0.5, 1, 2, 4 and 24 h post-dose, chilled on ice and centrifuged at 5000 rpm for 10 min. Aliquots (0.2 mL) of each plasma sample were stored frozen at −20° C. For analysis, 50 μL aliquots of study samples were mixed with 50 μL of ACN/H2O (50:50), extracted by protein precipitation using ACN containing the internal standard Gamitrinib-d15 (100 ng/mL), and aliquots of supernatant were mixed with deionized water for Gamitrinib determination. Batch samples under analysis included a calibration curve, a matrix blank (blank rat plasma), a reagent blank, a control zero (blank rat plasma spiked with internal standard), and duplicate QC samples at 3 concentration levels (low, medium, and high) in addition to the study samples. Within each batch, the study samples were bracketed by calibration standards or QC samples. The lowest calibration standard served to evaluate system suitability at the beginning of each batch. […] Overall, the concentration of Gamitrinib was measured in 21 rat plasma samples in 1 analytical batch using LC-MS/MS data acquisition on a Shimadzu Nexera LC system coupled with an AB Sciex Triple Quad 5500 mass spectrometer. Chromatograms were integrated using Analyst 1.6.2 software. A weighted (1/x^2, x=concentration) linear regression was used to generate the calibration curve for Gamitrinib. […] The mean, standard deviation, precision, accuracy, and assay variability were calculated using Microsoft Excel.

[5] = target: CYP1A2 (Homo sapiens, UniProt P05177); test: CYP inhibition in liver microsomes, CYP1A2; format: in vitro ADME; details: human liver microsomes 0.1 mg/mL
Chain of CYP1A2 (P05177 whole entry): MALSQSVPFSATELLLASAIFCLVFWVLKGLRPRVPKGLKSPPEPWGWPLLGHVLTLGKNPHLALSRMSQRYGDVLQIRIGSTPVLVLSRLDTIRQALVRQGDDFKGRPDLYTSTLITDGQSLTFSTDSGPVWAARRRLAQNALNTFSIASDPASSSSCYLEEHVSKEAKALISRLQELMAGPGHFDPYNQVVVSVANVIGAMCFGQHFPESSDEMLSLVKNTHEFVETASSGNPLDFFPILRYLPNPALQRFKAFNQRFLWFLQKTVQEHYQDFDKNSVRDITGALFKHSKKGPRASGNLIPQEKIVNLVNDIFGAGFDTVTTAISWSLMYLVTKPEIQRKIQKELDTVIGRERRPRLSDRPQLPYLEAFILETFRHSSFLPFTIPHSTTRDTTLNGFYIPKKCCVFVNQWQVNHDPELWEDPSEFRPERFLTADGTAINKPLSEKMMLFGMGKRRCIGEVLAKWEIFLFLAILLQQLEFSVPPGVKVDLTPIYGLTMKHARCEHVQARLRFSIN
Method: After addition of prototypical CYP substrates in 250 μL, samples were incubated for 10 min (CYP1A2, CYP2B6, CYP2C9, and CYP3A4) or 20 min (CYP2C8) at 37° C. in 5% CO2. […] Samples were analyzed for metabolite formation by LC-MS/MS. The results were expressed using the peak area ratio of analyte to internal standard, based on the calibration curves.
where Range=fitted uninhibited value, s=slope factor, x=inhibitor concentration, y=% control activity.

[6] = test system: melanoma cell lines; details: melanoma lines of NCI 60 screen; read-out: IC50 anticancer activity; cited from earlier work
[7] = 1 mg/kg/dose (NOAEL), d 29 of dosing
[8] = 5 mg/kg IV, individual animals Rat 1-3

CO[C@H]1/C=C\C=C(/C)C(=O)NC2=CC(=O)C(NCCCCCC[P+](c3ccccc3)(c3ccccc3)c3ccccc3)=C(C[C@@H](C)C[C@H](OC)[C@H](O)[C@@H](C)/C=C(\C)[C@@H]1OC(N)=O)C2=O [Gamitrinib, 17-Demethoxy-17-((6-(triphenylphosphonio)hexyl)amino)geldanamycin]
Cmax [1, 7]: 87.1 ng/mL | AUC(0-t) [1, 7]: 174 ng·h/mL | Cmax ([1]; 10 mg/kg/dose (STD 10), d 29): 311 ng/mL | AUC(0-t) ([1]; 10 mg/kg/dose (STD 10), d 29): 1300 ng·h/mL | Vd ([1]; both sexes, in vivo, rats, 1, 10 or 25 mg/kg/dose IV twice weekly, d 4 and d 29, read-out: Vss): 12.2 to 90 L/kg | reduction in mean body weights ([2]; 10 mg/kg/dose IV twice weekly): −5.5% | reduction in mean body weights ([2]; 25 mg/kg/dose IV twice weekly): −5.7% | urinalysis or ophthalmic changes ([2]; rats): No effects | Gamitrinib-related clinical observations ([2]; rats administered 10 mg/kg/dose): inguinal swelling, piloerection, hypoactivity, and sensitivity to touch at the infusion site | microscopic findings at the infusion site ([2]; rats administered 10 mg/kg/dose (both sexes)): mixed cell inflammation at the catheter/infusion site | kidney histology ([2]; rats, 25 mg/kg/dose IV, 25 mg/kg): slight kidney tubule degeneration/regeneration; also recorded: marked kidney tubule degeneration/regeneration; also recorded: tubular degeneration/regeneration | serum urea nitrogen (UN) and creatinine concentrations ([2]; rats, 25 mg/kg/dose, 25 mg/kg): Minimally to mildly higher; also recorded: mild elevation of urea nitrogen | serum urea nitrogen ([2]; rats, >10 mg/kg/dose): mild elevation | no observed adverse effect level (NOAEL) ([2]; rats, IV twice weekly 29 d): 1 mg/kg/dose | severely toxic dose in 10% of the animals (STD 10) ([2]; rats, IV twice weekly 29 d): 10 mg/kg/dose | Alterations in clinical chemistry parameters ([2]; rats, highest Gamitrinib dose level tested): mildly to moderately higher neutrophil and platelet (Plts) counts, minimally prolonged partial thromboplastin time (PT), lower albumin, higher globulin, and alkaline phosphatase concentrations | drug accumulation ([2]; rats, Cmax and AUC0-24 similar on d 4 and d 29): no drug accumulation after multiple doses | Gamitrinib-related mortality ([2]; toxicity rats, 10 mg/kg/dose): one male | Gamitrinib-related mortality ([2]; toxicity rats, 25 mg/kg/dose): two males and one female | Gamitrinib-related mortality ([2]; toxicokinetic rats, 10 mg/kg/dose): two toxicokinetic females | Gamitrinib-related mortality ([2]; toxicokinetic rats, 25 mg/kg/dose): one toxicokinetic female | IC50 [3]: 160 to 3300 nM | t1/2 ([4]; 5 mg/kg IV, Sprague-Dawley rats, individual animals Rat 1-3): 11.107 h and 14.022 h | t1/2 (terminal phase half-life) ([4]; 5 mg/kg IV, Sprague-Dawley rats, mean, n=3): 12.25 ± 1.55 h | Gamitrinib plasma concentration ([4]; 5 mg/kg IV, 5 min, animals 1-3): 674.432 ng/mL and 622.199 ng/mL | Gamitrinib plasma concentration ([4]; 5 mg/kg IV, 15 min, animals 1-3): 128.663 ng/mL and 180.951 ng/mL | Gamitrinib plasma concentration ([4]; 5 mg/kg IV, 30 min, animals 1-3): 67.204 ng/mL and 106.381 ng/mL | Gamitrinib plasma concentration ([4]; 5 mg/kg IV, 60 min, animals 1-3): 65.903 ng/mL and 55.991 ng/mL | Gamitrinib plasma concentration ([4]; 5 mg/kg IV, 120 min, animals 1-3): 43.125 ng/mL and 29.914 ng/mL | Gamitrinib plasma concentration ([4]; 5 mg/kg IV, 240 min, animals 1-3): 34.776 ng/mL and 28.905 ng/mL | Gamitrinib plasma concentration ([4]; 5 mg/kg IV, 1440 min, animals 1-3): 10.511 ng/mL and 10.365 ng/mL | AUCINF [4, 8]: 957.472 ng·h/mL and 918.784 ng·h/mL | AUClast [4, 8]: 789.045 ng·h/mL and 709.112 ng·h/mL | CL [4, 8]: 87.035 mL/min/kg and 90.700 mL/min/kg | Cmax [4, 8]: 829.668 ng/mL and 1544.041 ng/mL | MRT [4, 8]: 5.411 h and 5.524 h | Vss [4, 8]: 60.052 L/kg and 78.131 L/kg | Vz [4, 8]: 83.678 L/kg and 110.085 L/kg | AUClast (AUC0-t) ([4]; 5 mg/kg IV, mean, n=3): 783.199 ng·h/mL | CL (clearance) ([4]; 5 mg/kg IV, mean, n=3): 85.656 ± 5.856 mL/min/kg and 85.65 ± 5.85 mL/min/kg | 17-AG plasma concentration after IV Gamitrinib ([4]; 30 min, animals 1-3): BLOQ | 17-AG plasma concentration after IV Gamitrinib ([4]; 60 min, animals 1-3): BLOQ | 17-AG plasma concentration after IV Gamitrinib ([4]; 120 min, animals 1-3): BLOQ | 17-AG plasma concentration after IV Gamitrinib ([4]; 240 min, animals 1-3): BLOQ | 17-AG plasma concentration after IV Gamitrinib ([4]; 1440 min, animals 1-3): BLOQ | concentration at 5 min ([4]; Sprague-Dawley, rat, plasma, intravenous, 5 mg/kg, 5 mg/kg IV, 5 min, animals 1-3): 526 ng/mL | concentration at 15 min ([4]; Sprague-Dawley, rat, plasma, intravenous, 5 mg/kg, 5 mg/kg IV, 15 min, animals 1-3): 212 ng/mL | concentration at 30 min ([4]; Sprague-Dawley, rat, plasma, intravenous, 5 mg/kg, 5 mg/kg IV, 30 min, animals 1-3): 114 ng/mL | concentration at 60 min ([4]; Sprague-Dawley, rat, plasma, intravenous, 5 mg/kg, 5 mg/kg IV, 60 min, animals 1-3): 71.4 ng/mL | concentration at 120 min ([4]; Sprague-Dawley, rat, plasma, intravenous, 5 mg/kg, 5 mg/kg IV, 120 min, animals 1-3): 46.7 ng/mL | concentration at 240 min ([4]; Sprague-Dawley, rat, plasma, intravenous, 5 mg/kg, 5 mg/kg IV, 240 min, animals 1-3): 36.8 ng/mL | concentration at 1440 min ([4]; Sprague-Dawley, rat, plasma, intravenous, 5 mg/kg, 5 mg/kg IV, 1440 min, animals 1-3): 11.9 ng/mL | half-life ([4]; Sprague-Dawley, rat, plasma, iv, 5 mg/kg, 5 mg/kg IV, Sprague-Dawley rats, individual animals Rat 1-3, read-out: t1/2 (converted)): 697 min | half-life ([4]; Sprague-Dawley, rat, plasma, iv, 5 mg/kg, 5 mg/kg IV, Sprague-Dawley rats, mean, n=3, read-out: t1/2 (terminal phase half-life) (converted)): 732 ± 93 min | AUC(0-inf) ([4]; Sprague-Dawley, rat, plasma, iv, 5 mg/kg, 5 mg/kg IV, individual animals Rat 1-3): 1050 ng·h/mL | AUC(0-t) ([4]; Sprague-Dawley, rat, plasma, iv, 5 mg/kg, 5 mg/kg IV, individual animals Rat 1-3, read-out: AUClast): 851 ng·h/mL | clearance ([4]; Sprague-Dawley, rat, plasma, iv, 5 mg/kg, 5 mg/kg IV, individual animals Rat 1-3, read-out: CL): 79.2 mL/min/kg | Cmax ([4]; Sprague-Dawley, rat, plasma, iv, 5 mg/kg, 5 mg/kg IV, individual animals Rat 1-3, read-out: Cmax): 1150 ng/mL | MRT ([4]; Sprague-Dawley, rat, plasma, iv, 5 mg/kg, 5 mg/kg IV, individual animals Rat 1-3, read-out: MRT): 5.54 h | Vd ([4]; Sprague-Dawley, rat, plasma, iv, 5 mg/kg, 5 mg/kg IV, individual animals Rat 1-3, read-out: Vss): 58.2 L/kg | Vd ([4]; Sprague-Dawley, rat, plasma, iv, 5 mg/kg, 5 mg/kg IV, individual animals Rat 1-3, read-out: Vz): 79.7 L/kg | AUC(0-inf) ([4]; Sprague-Dawley, rat, plasma, iv, 5 mg/kg, 5 mg/kg IV, mean, n=3): 976 ng·h/mL | AUC(0-t) ([4]; Sprague-Dawley, rat, plasma, iv, 5 mg/kg, 5 mg/kg IV, mean, n=3, read-out: AUClast (AUC0-t)): 783 ± 71.3 ng·h/mL | clearance ([4]; Sprague-Dawley, rat, plasma, iv, 5 mg/kg, 5 mg/kg IV, mean, n=3, read-out: CL (clearance)): 85.6 ± 5.8 mL/min/kg | Cmax ([4]; Sprague-Dawley, rat, plasma, iv, 5 mg/kg, 5 mg/kg IV, mean, n=3, read-out: Cmax): 1180 ng/mL | MRT ([4]; Sprague-Dawley, rat, plasma, iv, 5 mg/kg, 5 mg/kg IV, mean, n=3, read-out: MRT): 5.49 h | Vd ([4]; Sprague-Dawley, rat, plasma, iv, 5 mg/kg, 5 mg/kg IV, mean, n=3, read-out: Vss): 65.5 L/kg | Vd ([4]; Sprague-Dawley, rat, plasma, iv, 5 mg/kg, 5 mg/kg IV, mean, n=3, read-out: Vz): 91.2 L/kg | generation of 17-AG by Gamitrinib metabolism in rats ([4]; in words): did not generate detectable levels | IC50 [5]: 32.9 µM | IC50 [6]: 360 to 2700 nM
